Laboratory results: a melting point compilation (Tetko et al.; mined from patent text by program, amines drawn as free bases though some values may be those of a salt)

Compound	melting point [°C]
CCCCCN(CCC12CC3CC(CC(C3)C1)C2)C(=O)NCc1cccnc1	88.5 to 102
NC1=NS(=O)N=C1NCCCOc1cccc2c(=O)[nH]ccc12 (stereo not given)	235
N#Cc1ccc(OCc2ccccc2)c(O)c1	101
COc1ccnc(CCc2nc3cc(-c4cccs4)cnc3[nH]2)c1	132 to 133
Cc1ncn(-c2nc(-c3ccc(Cl)cc3)c(CCC(=O)O)o2)c1C	225 to 226
COc1ccc2c(c1)C(=O)C(Cc1ccccc1)CN2S(=O)(=O)c1ccc(C)cc1 (stereo not given)	101 to 103
OC(c1cc(-c2ccc(Cl)cc2)c(-c2ccc(Cl)cc2)[nH]1)(C(F)(F)F)C(F)(F)F	144 to 145
CC(C)(C)OC(=O)NCOc1ccccc1C(=O)O	141 to 144
COc1cc(OCc2ccccc2)cc(Cl)c1Cl	79 to 81
Nc1cccc(-c2ccccc2O)c1	158 to 161
C=Cc1ccc(NC(=O)N2CCN(c3ncnc4cc(OC)c(OC)cc34)CC2)cc1	214 to 216
Cc1ccc(C(=O)c2c(Cl)cc(Cl)cc2Cl)cc1C(C)c1ccc(=O)[nH]n1 (stereo not given)	221 to 222
CCOC(=O)C1=C(C)NC(C)=C(C(=O)OC)C1c1cccc(N)c1 (single isomer, unassigned; (-))	173 to 175
Cc1noc(NS(=O)(=O)c2ccccc2-c2ccccc2)c1Br	145 to 147
COCCOCn1cc(C(=O)NCc2ccc(Cl)cc2)c(=O)c2cc(CN3CCOCC3)ccc21	150 to 152
NS(=O)(=O)c1cccc(N/C=C2\C(=O)Nc3ccccc32)c1	> 250
CC(C)CN(CC(O)(Cn1cncn1)c1ccc(Cl)cc1Cl)S(C)(=O)=O (stereo not given)	128 to 129
CCOc1cc(Cn2cc(CCC(=O)O)c(-c3ccccc3)c2)cc(OCc2csc(-c3cccs3)n2)c1	104 to 105
Cn1ncnc1COc1nn2c(-c3cccs3)nncc2c1-c1ccccc1	209
COCCOc1cc2ncc(C#N)c(O)c2cc1OCc1ccccc1	> 250
O=C(OC(c1ccccc1)c1ccccc1)C(C1CC(Cl)=NO1)N1C(=O)c2ccccc2C1=O (stereo not given)	178 to 179
Cc1nn(-c2ccccn2)c2nccc(O)c12	241 to 243
CC(C)(C)NC(=O)COc1cc2c(cc1C#Cc1ccccc1)NC(=O)CC(c1cccc(C#N)c1)=N2	> 250

Compound	melting point [°C]
COc1ccc(Nc2ccnc3nc(C)c(O)cc23)cc1	169 to 174
CCCn1ccnc1C(=O)Cc1ccc([N+](=O)[O-])cc1	95 to 96
O=C1C2C=CC(O2)C(=O)N1c1ccccc1	150 to 152
CCOC(=O)CCCCCn1c(-c2ccccc2)c(-c2ccccc2)n(-c2ccccc2)c1=O	104 to 106
Cc1cccc(C)c1NC(=O)N1CCCN(C(C)C)C1	138 to 139
CCCCCCCCCCCCCCCCCCN(CCCCCCCCCCCCCCCCCC)Cc1ccc(CN(CCO)CCO)cc1	49 to 50
COc1cc2c(cc1OC)[C@@H]1CN(C)CC[C@@H]1N=C2c1ccc([N+](=O)[O-])cc1 (relative stereo)	194 to 195
COC(=O)C(CCCCNC(=O)c1ccc(N)cc1)n1c2ccccc2c2ccccc21 (stereo not given)	90 to 91
CC(=O)c1c(-c2ccc(Cl)cc2)c(-c2ccc(Cl)cc2)nn(CCC2OC(CO)C(O)C(O)C2O)c1=O (stereo not given)	96 to 122
CC(C)(C1CCCCC1)C(NC(=O)c1ccc(Cl)cc1)NC(=N[N+](=O)[O-])Nc1cccnc1 (stereo not given)	201 to 203
COc1c(Cl)cc(F)cc1C1OC(=O)NC1=O (stereo not given)	177 to 179
Nc1ncc(-c2ccccc2)nc1Sc1ccc(Cl)cc1	158 to 160
CCCCCCCCCCCCCC(=O)c1c(O)c(C)c(C)c(O)c1CCC	70
Cc1c(=O)[nH]c(=O)n2ccsc12	> 230
O=C(O)c1cn(C2CC2)c2nc(N3CCNCC3)c(F)cc2c1=O	274 to 276
CC(C)SN(c1ccccc1)P(=O)(c1ccccc1)c1ccccc1	148 to 150
O=C(c1ccccc1Nc1ccc(O)cc1)N1CCOCC1	214 to 216
O=C1c2ccccc2C(=O)C1(O)c1cc(F)ccc1O	189 to 193
CCn1cc(C(=O)O)c(=O)c2cc(F)c(N3CC(C)(N)C3)c(F)c21	293 to 296
Fc1ccc(NC(=S)NN2CC=C(c3ccccc3)CC2)cc1	192 to 194
COc1ccc(CC2SC(=O)NC2=O)c2c1N(Cc1ccc([N+](=O)[O-])cc1)C(=O)CC2 (stereo not given)	246 to 247
CN(C(=O)CCS(C)=O)c1nnc(-c2cccnc2)s1 (stereo not given)	138 to 140
CC(C)(C)OC(=O)N[C@H]1CNC1=O	173 to 175

Further lines, results first:

melting point [°C]	Compound
177 to 179	O=C(O)c1ccc(I)nc1
81 to 83	CCCCNc1nc(C=O)c(C#N)cc1C(=O)OCC
211 to 215	NC(=O)[C@H](Cc1ccccc1)N1C(=O)c2ccccc2C1=O
125 to 128	COc1ccc(C)cc1NC(=O)Nc1ccc(C2=CCN(C(=O)Nc3ccc(OCC(O)CO)cc3Cl)CC2)cc1 (stereo not given)
140	COc1ccc(CN(C)CC=CCc2ccc(NC(=O)c3cccc4c(=O)c5ccccc5[nH]c34)cc2)cc1OC
162 to 163	O=C(O)CCCN(C(=O)c1ccccc1O)C(c1ccccc1)c1ccccc1
172 to 173	O=C1C(=O)N(C(c2ccccc2)c2ccccc2)c2c(Cl)cccc21
60 to 62	COc1nn(-c2ccc(C)c3c2OC(C)(C)C3)c(=O)o1
117 to 118	NCc1cccc(OCc2nc(-c3ccc(Cl)cc3)cs2)c1
244 to 245	O=C(O)c1nn(-c2ccccc2)c2c1C(N1CCOCC1)c1ccccc1-2 (stereo not given)
138 to 140	CN1CC(C(=O)N(C)CCCc2ccc(Cl)c(Cl)c2)=C(O)C1=O
255 to 258	Cn1cc(C(N)=O)c(=O)c2sccc21
294 to 298	CN1CCN(c2ccc(Nc3ncc4c(n3)S/C(=C/c3ccc(C(N)=O)cc3)C(=O)N4)cc2)CC1
119 to 123	CC(C)(O)C#Cc1ccc2[nH]ccc2c1
204 to 205	O=C(C=Cc1cccc(-c2ccccc2)c1)Nc1ccc(CP2(=O)OCCCO2)cc1
52 to 54	O=[N+]([O-])c1ccc(F)cc1OCc1ccccc1
83 to 84	OC(CCN1CCN(c2cccc(C(F)(F)F)c2)CC1)COc1ccccc1 (stereo not given)
80 to 82	COC(=O)CNC(=O)c1cncc(F)c1
225 to 226	N#Cc1ccc(OCc2ccncc2)cc1OC(C(=O)O)c1ccccc1Cl (racemic)
109 to 110	COc1cc(C(C)(C)CNC(=O)c2ccccc2)cc2c1OC(C)(C)C2
116	COc1cc(F)c(C(=O)Cc2c(Cl)cncc2Cl)cc1OC1CCCC1
257 to 258	O=C(O)c1ccc([N+](=O)[O-])c(C(=O)O)c1
193 to 200	CC(=O)Nc1c(C(=O)c2ccc(O)c(O)c2)[nH]c2cc(Cl)ccc12
100 to 102	CCOC(=O)C(=C1NCCCS1)[N+](=O)[O-]
260	CCCOc1ccccc1NC=C1C(=O)N(c2ccc(C(=O)O)cc2)N=C1C
131 to 132	COc1cccc(CC(=O)O)c1OCCCc1cn(-c2ccc(C(F)(F)F)nn2)nc1C(C)(C)C
72 to 73	O=C(O)Cc1csc(NC(=O)C(Oc2ccc(F)cc2)c2ccc(S(=O)(=O)C3CC3)cc2)n1 (stereo not given)

melting point [°C]	Compound
145 to 146	CN(C)C(=O)C(CCO)C1(C)CCCc2c1[nH]c1ccccc21 (stereo not given)
116 to 118	COc1ccc(Sc2nc(-c3ccccc3)cnc2N)cc1
113	CCCCc1nc(C=O)c(Br)[nH]1
238 to 240	CS(=O)(=O)N1CC=C(c2ccc3cnc(Nc4ccc(N5CCOCC5)cc4)nn23)CC1
206 to 208	COC(=O)c1cccc(-c2c(C)c(NC(=O)CC(C)(C)C)c(C)c3c2OCC3c2ccc(C(C)C)cc2)c1 (stereo not given)
260 to 265	Cn1ccc2cc(-c3cc4nccnc4[nH]3)ccc21
156 to 157	COc1nc(C)cnc1NS(=O)(=O)c1cccnc1-c1ccc(OCC(C)(C)O)cc1
178 to 179	CNC(=O)C1=CC(CF)(CF)Oc2ccc([N+](=O)[O-])cc21
146 to 148	COc1ccc(/C=C/C(=O)OCC(=O)COC(=O)/C=C/c2ccc(OC)cc2)cc1
180 to 181	COc1cc(COc2nn(-c3ccccc3)cc2/C=C/C(=O)N2CCOCC2)ccc1OCc1nc(-c2ccco2)oc1C
50 to 52	CCC(=O)c1cc(Cl)c(O)c(Cl)c1
222	OC(Cn1ccnc1)(c1ccc(-c2ccccc2)cc1)c1ccccc1Cl (stereo not given)
248 to 250	CC1CCC(=NN)c2ncc(C(N)=O)c(=O)n21 (stereo not given)
104 to 106	CCOc1cc2c(Cl)ncnc2cc1OC(C)C
263	O=c1[nH]c2ccc(Br)cc2cc1Cc1ccccc1
271 to 273	O=C(O)CN1CCN(c2ccnc(-c3nc(=O)c4ccccc4s3)c2)C1=O
174 to 176	CC=CC1=NC(=Cc2cccs2)C(=O)O1
152 to 155	C#Cc1cccc(Nc2ncnc3ccc(S(=O)(=O)n4ccc(C=CC(=O)NOC5CCCCO5)c4)cc23)c1 (stereo not given)
97 to 99	Clc1ccc(C2CCN(CCCOc3ccc4c(c3)CNCCC4)CC2)cc1
131 to 132	CS(=O)(=O)c1ccc(-c2cc(C(=O)CCCO[N+](=O)[O-])nn2-c2ccc(Cl)cc2)cc1
95 to 98	CC(C)=CCCC(C)=CC=C1SC(=S)N(CC(=O)O)C1=O
83 to 84	CC(O)C1CCC(CNC(=O)OCc2ccccc2)CC1 (stereo not given)
142 to 143	COC(=O)c1snc(-c2ccc([N+](=O)[O-])cc2)c1C(=O)OC
160 to 162	COC(=O)c1cc2cc(-c3ccc(OC)cc3)ccc2o1
80 to 82	O=C(Nc1ccccc1)C1(C=Cc2ccccc2)SC=CC1OC(F)F (stereo not given)
171 to 176	CS(=O)(=O)c1ccc(-c2sc(-c3ccncc3)nc2-c2ccc(F)cc2)cc1
204 to 205	CCCC1(C)C(C#N)C(=O)NC(=O)C1C#N (stereo not given)
